Data on 24 compounds can be found in patent US8148391B2 (Cephalon, Inc., priority 2006, dated 2012).

The target of assay [1] is T1, baculovirus-expressed ALK (Homo sapiens, UniProt Q9UM73).
T1 construct: host or cells: baculovirus expression system
In words: ALK Kinase Assay (ELISA-type, time-resolved fluorescence). The following applies: 1 μM ATP (Km level); read-out: ALK Activity (ALK Kinase Inhibition, IC50). In kind it is biochemical. The method in brief:
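Substrate coating: phospholipase C-γ, 10 μg/mL in TBS. Kinase step: 30 ng/ml ALK, 15 min, 37° C. Detection and analysis: Eu-N1 PT66 antibody, with IC50 fitted as a sigmoidal variable-slope dose-response curve.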
(In general: In an ELISA, binding on a coated surface is turned into a signal by an enzyme label.)

Assay [2] has as its target T2, c-Met (cytoplasmic domain) (Homo sapiens, UniProt P08581).
T2 construct: 10 ng/mL c-Met (cytoplasmic domain, Invitrogen Corporation #PV3143); purchased Invitrogen Corporation PV3143
Kind of assay: c-Met Kinase Assay (same methods as for ALK, with modifications). The format is biochemical. The following applies: 1 μM ATP (Km level); read-out: cMet Activity (c-Met Kinase Inhibition, IC50). Put shortly: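 This plate-based kinase format uses immobilized phospholipase C-γ as substrate, phosphorylated by c-Met cytoplasmic domain (10 ng/mL) at 37° C for 15 minutes.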

Structures are written as SMILES.

T2 sequence (P08581 956-1390 limits assumed): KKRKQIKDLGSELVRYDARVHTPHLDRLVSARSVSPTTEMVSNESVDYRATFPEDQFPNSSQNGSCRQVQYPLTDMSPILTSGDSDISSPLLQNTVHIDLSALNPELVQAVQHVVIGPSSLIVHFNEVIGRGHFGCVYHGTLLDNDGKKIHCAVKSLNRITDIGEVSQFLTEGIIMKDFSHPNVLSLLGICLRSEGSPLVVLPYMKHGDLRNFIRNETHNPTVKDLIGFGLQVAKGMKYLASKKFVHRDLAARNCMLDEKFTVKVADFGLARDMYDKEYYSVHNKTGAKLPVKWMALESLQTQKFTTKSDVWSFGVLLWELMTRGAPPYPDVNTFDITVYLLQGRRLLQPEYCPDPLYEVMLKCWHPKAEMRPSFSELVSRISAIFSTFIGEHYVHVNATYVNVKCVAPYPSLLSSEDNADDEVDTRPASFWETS
T1 sequence (Q9UM73 19-1620): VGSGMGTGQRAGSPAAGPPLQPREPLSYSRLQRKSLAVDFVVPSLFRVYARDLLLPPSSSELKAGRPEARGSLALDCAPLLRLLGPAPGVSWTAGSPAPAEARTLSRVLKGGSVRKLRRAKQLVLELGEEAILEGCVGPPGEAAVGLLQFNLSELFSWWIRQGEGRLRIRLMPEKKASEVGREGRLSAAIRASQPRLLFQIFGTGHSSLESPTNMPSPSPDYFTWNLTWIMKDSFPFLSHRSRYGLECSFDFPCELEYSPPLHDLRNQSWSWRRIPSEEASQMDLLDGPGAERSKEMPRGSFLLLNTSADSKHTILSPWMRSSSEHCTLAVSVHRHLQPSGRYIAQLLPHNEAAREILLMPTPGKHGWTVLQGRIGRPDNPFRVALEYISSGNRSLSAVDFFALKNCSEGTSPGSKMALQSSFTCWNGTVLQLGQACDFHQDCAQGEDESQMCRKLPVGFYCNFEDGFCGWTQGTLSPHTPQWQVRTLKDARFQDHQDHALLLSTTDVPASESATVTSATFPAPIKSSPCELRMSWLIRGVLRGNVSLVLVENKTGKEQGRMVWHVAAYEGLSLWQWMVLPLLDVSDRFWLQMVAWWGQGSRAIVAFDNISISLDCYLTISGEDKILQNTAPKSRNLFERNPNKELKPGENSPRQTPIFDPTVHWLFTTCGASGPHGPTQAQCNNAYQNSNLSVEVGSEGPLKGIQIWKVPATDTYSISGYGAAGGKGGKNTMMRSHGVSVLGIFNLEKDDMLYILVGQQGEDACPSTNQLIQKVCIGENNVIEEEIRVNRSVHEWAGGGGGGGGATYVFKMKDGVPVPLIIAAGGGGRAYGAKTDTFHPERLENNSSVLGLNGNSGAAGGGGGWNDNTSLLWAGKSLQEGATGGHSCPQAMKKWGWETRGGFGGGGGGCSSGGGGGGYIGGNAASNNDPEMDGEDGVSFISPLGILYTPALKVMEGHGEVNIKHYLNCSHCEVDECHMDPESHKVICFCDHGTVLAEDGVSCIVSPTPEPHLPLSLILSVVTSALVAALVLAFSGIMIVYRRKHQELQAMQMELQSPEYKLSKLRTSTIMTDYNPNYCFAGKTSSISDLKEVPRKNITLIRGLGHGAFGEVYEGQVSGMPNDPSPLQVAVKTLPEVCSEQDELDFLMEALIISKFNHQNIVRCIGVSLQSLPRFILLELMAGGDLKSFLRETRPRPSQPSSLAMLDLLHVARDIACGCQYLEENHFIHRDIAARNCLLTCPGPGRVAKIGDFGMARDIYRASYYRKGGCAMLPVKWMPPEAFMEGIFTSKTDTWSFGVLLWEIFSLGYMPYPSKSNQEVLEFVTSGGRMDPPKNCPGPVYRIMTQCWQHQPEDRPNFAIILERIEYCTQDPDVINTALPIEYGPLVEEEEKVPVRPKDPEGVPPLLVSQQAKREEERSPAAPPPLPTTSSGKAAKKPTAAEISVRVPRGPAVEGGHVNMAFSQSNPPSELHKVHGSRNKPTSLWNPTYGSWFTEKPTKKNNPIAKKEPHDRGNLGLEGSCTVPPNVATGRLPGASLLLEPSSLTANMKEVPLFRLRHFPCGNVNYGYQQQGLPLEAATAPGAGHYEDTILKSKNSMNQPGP

Turning to `COCCNC1CCCc2c(ccc(Nc3ncc(Cl)c(N[C@@H]4CCCC[C@H]4NS(C)(=O)=O)n3)c2OC)C1` (stereo partly drawn) [Example 958, N-((1R,2R)-2-{5-Chloro-2-[1-methoxy-6-(2-methoxy-ethylamino)-6,7,8,9-tetrahydro-5H-benzocyclohepten-2-ylamino]-pyrimidin-4-ylamino}-cyclohexyl)-methanesulfonamide], the IC50 in assay [1] is below 100 nM; in assay [2], above 10000 nM.
The matching figures for `COCCNC1CCCc2c(ccc(Nc3ncc(Cl)c(Nc4ccccc4S(=O)(=O)C(C)C)n3)c2OC)C1` (stereo not drawn) [Example 959, 5-Chloro-N(2)-[1-methoxy-6-(2-methoxy-ethylamino)-6,7,8,9-tetrahydro-5H-benzocyclohepten-2-yl]-N(4)-[2-(propane-2-sulfonyl)-phenyl]-pyrimidine-2,4-diamine]: below 100 nM and above 10000 nM.
Turning to `COc1c(Nc2ncc(Cl)c(Nc3ccccc3S(=O)(=O)C(C)C)n2)ccc2c1CCCC(NCCO)C2` (stereo not drawn) [Example 961, 2-(2-{5-Chloro-4-[2-(propane-2-sulfonyl)-phenylamino]-pyrimidin-2-ylamino}-1-methoxy-6,7,8,9-tetrahydro-5H-benzocyclohepten-6-ylamino)-ethanol], the values for the half-inhibitory concentration (IC50) in assay [1] and in assay [2] were below 100 nM and above 10000 nM, respectively.
On the same counts, the results for `COc1c(Nc2ncc(Cl)c(Nc3ccccc3S(=O)(=O)N3CC[C@@H](O)C3)n2)ccc2c1CCCC(NCCO)C2` (stereo partly drawn) [Example 962, (R)-1-(2-{5-Chloro-2-[6-(2-hydroxy-ethylamino)-1-methoxy-6,7,8,9-tetrahydro-5H-benzocyclohepten-2-ylamino]-pyrimidin-4-ylamino}-benzenesulfonyl)-pyrrolidin-3-ol] are below 100 nM and above 10000 nM.
For `COc1c(Nc2ncc(Cl)c(Nc3ccccc3S(=O)(=O)N3CC[C@H](O)C3)n2)ccc2c1CCCC(NCCO)C2` (stereo partly drawn) [Example 963, (S)-1-(2-{5-Chloro-2-[6-(2-hydroxy-ethylamino)-1-methoxy-6,7,8,9-tetrahydro-5H-benzocyclohepten-2-ylamino]-pyrimidin-4-ylamino}-benzenesulfonyl)-pyrrolidin-3-ol], the IC50 in assay [1] is below 100 nM; in assay [2] it was 1000 to 10000 nM.
On the same counts, the results for `COc1c(Nc2ncc(Cl)c(Nc3ccccc3S(=O)(=O)N3CCCC3)n2)ccc2c1CCCC(NCCO)C2` (stereo not drawn) [Example 964, 2-(2-{5-Chloro-4-[2-(pyrrolidine-1-sulfonyl)-phenylamino]-pyrimidin-2-ylamino}-1-methoxy-6,7,8,9-tetrahydro-5H-benzocyclohepten-6-ylamino)-ethanol] are below 100 nM and above 10000 nM.
Consider `COc1c(Nc2ncc(Cl)c(N[C@@H]3CCCC[C@H]3NS(C)(=O)=O)n2)ccc2c1CCCC(NCCO)C2` (stereo partly drawn) [Example 965, N-((1R,2R)-2-{5-Chloro-2-[6-(2-hydroxy-ethylamino)-1-methoxy-6,7,8,9-tetrahydro-5H-benzocyclohepten-2-ylamino]-pyrimidin-4-ylamino}-cyclohexyl)-methanesulfonamide], for which the IC50 in assay [1] was below 100 nM; in assay [2] it was above 10000 nM.
The matching figures for `Cc1cccnc1-c1ccccc1Nc1nc(Nc2ccc3c(c2)C(C)(C)CCC(=O)N3)ncc1Cl` [Example 971, 7-{5-Chloro-4-[2-(3-methyl-pyridin-2-yl)-phenylamino]-pyrimidin-2-ylamino}-5,5-dimethyl-1,3,4,5-tetrahydro-benzo[b]azepin-2-one]: below 100 nM and 1000 to 10000 nM.
On to `COCCN1CCc2ccc(Nc3ncc(Cl)c(Nc4ccccc4-c4ncccc4C)n3)cc2CC1` [Example 972, 5-Chloro-N*2*-[3-(2-methoxy-ethyl)-2,3,4,5-tetrahydro-1H-benzo[d]azepin-7-yl]-N*4*-[2-(3-methyl-pyridin-2-yl)-phenyl]-pyrimidine-2,4-diamine], for which the values for the IC50 in assay [1] and in assay [2] were below 100 nM and 100 to 1000 nM, respectively.
The matching figures for `Cc1nnc(-c2ccccc2Nc2nc(Nc3ccc4c(c3)C(C)(C)CCC(=O)N4)ncc2Cl)s1` [Example 973, 7-{5-Chloro-4-[2-(5-methyl-[1,3,4]thiadiazol-2-yl)-phenylamino]-pyrimidin-2-ylamino}-5,5-dimethyl-1,3,4,5-tetrahydro-benzo[b]azepin-2-one]: 100 to 1000 nM and 1000 to 10000 nM.
On the same counts, the results for `COCCN1CCc2ccc(Nc3ncc(Cl)c(Nc4ccccc4-c4nnc(C)s4)n3)cc2CC1` [Example 974, 5-Chloro-N*2*-[3-(2-methoxy-ethyl)-2,3,4,5-tetrahydro-1H-benzo[d]azepin-7-yl]-N*4*-[2-(5-methyl-[1,3,4]thiadiazol-2-yl)-phenyl]-pyrimidine-2,4-diamine] are 100 to 1000 nM and 100 to 1000 nM.
On the same counts, the results for `CC1(C)CCC(=O)Nc2ccc(Nc3ncc(Cl)c(Nc4ccccc4-c4cnccn4)n3)cc21` [Example 975] are below 100 nM and 1000 to 10000 nM.
Turning to `CC1(C)CCC(=O)Nc2ccc(Nc3ncc(Cl)c(Nc4ccccc4-c4ncccn4)n3)cc21` [Example 976, 7-[5-Chloro-4-(2-pyrimidin-2-yl-phenylamino)-pyrimidin-2-ylamino]-5,5-dimethyl-1,3,4,5-tetrahydro-benzo[b]azepin-2-one], the 50% inhibitory concentration (IC50) in assay [1] was below 100 nM; in assay [2], above 10000 nM.
The matching figures for `COCCN1CCc2ccc(Nc3ncc(Cl)c(Nc4ccccc4-c4ncccn4)n3)cc2CC1` [Example 977, 5-Chloro-N*2*-[3-(2-methoxy-ethyl)-2,3,4,5-tetrahydro-1H-benzo[d]azepin-7-yl]-N*4*-(2-pyrimidin-2-yl-phenyl)-pyrimidine-2,4-diamine]: below 100 nM and 100 to 1000 nM.
The matching figures for `CC1(C)CCC(=O)Nc2ccc(Nc3ncc(Cl)c(Nc4ccccc4-c4nccs4)n3)cc21` [Example 978, 7-[5-Chloro-4-(2-thiazol-2-yl-phenylamino)-pyrimidin-2-ylamino]-5,5-dimethyl-1,3,4,5-tetrahydro-benzo[b]azepin-2-one]: below 100 nM and above 10000 nM.
Consider `COCCN1CCc2ccc(Nc3ncc(Cl)c(Nc4ccccc4-c4nccs4)n3)cc2CC1` [Example 979, 5-Chloro-N*2*-[3-(2-methoxy-ethyl)-2,3,4,5-tetrahydro-1H-benzo[d]azepin-7-yl]-N*4*-(2-thiazol-2-yl-phenyl)-pyrimidine-2,4-diamine], for which the results for the IC50 in assay [1] and in assay [2] were below 100 nM and 100 to 1000 nM, respectively.
On to `COCCn1ccnc1-c1ccccc1Nc1nc(Nc2ccc3c(c2)C(C)(C)CCC(=O)N3)ncc1Cl` [Example 980, 7-(5-Chloro-4-{2-[1-(2-methoxy-ethyl)-1H-imidazol-2-yl]-phenylamino}-pyrimidin-2-ylamino)-5,5-dimethyl-1,3,4,5-tetrahydro-benzo[b]azepin-2-one], for which the IC50 was 100 to 1000 nM in assay [1] and above 10000 nM in assay [2].
The matching figures for `COCCN1CCc2ccc(Nc3ncc(Cl)c(Nc4ccccc4-c4nccn4CCOC)n3)cc2CC1` [Example 981, 5-Chloro-N*4*-{2-[1-(2-methoxy-ethyl)-1H-imidazol-2-yl]-phenyl}-N*2*-[3-(2-methoxy-ethyl)-2,3,4,5-tetrahydro-1H-benzo[d]azepin-7-yl]-pyrimidine-2,4-diamine]: 100 to 1000 nM and 1000 to 10000 nM.
On to `CCN1C(=O)CCCc2c1ccc(Nc1ncc(Cl)c(Nc3ccccc3-c3nccn3C)n1)c2OC` [Example 983, 7-{5-Chloro-4-[2-(1-methyl-1H-imidazol-2-yl)-phenylamino]-pyrimidin-2-ylamino}-1-ethyl-6-methoxy-1,3,4,5-tetrahydro-benzo[b]azepin-2-one], for which the IC50 is below 100 nM in assay [1] and above 10000 nM in assay [2].
As to `CCN1C(=O)CCCc2c1ccc(Nc1ncc(Cl)c(Nc3ccccc3-c3ncccc3C)n1)c2OC` [Example 984, 7-{5-Chloro-4-[2-(3-methyl-pyridin-2-yl)-phenylamino]-pyrimidin-2-ylamino}-1-ethyl-6-methoxy-1,3,4,5-tetrahydro-benzo[b]azepin-2-one], the IC50 is below 100 nM in assay [1] and above 10000 nM in assay [2].
On the same counts, the results for `COCCN1CCc2cc(Nc3ncc(Cl)c(Nc4ccccc4-c4nccn4C)n3)c(OC)cc2CC1` [Example 986, 5-Chloro-N*2*-[8-methoxy-3-(2-methoxy-ethyl)-2,3,4,5-tetrahydro-1H-benzo[d]azepin-7-yl]-N*4*-[2-(1-methyl-1H-imidazol-2-yl)-phenyl]-pyrimidine-2,4-diamine] are below 100 nM and above 10000 nM.
On the same counts, the results for `COCCN1CCc2cc(Nc3ncc(Cl)c(Nc4ccccc4-c4ncccc4C)n3)c(OC)cc2CC1` [Example 987, 5-Chloro-N*2*-[8-methoxy-3-(2-methoxy-ethyl)-2,3,4,5-tetrahydro-1H-benzo[d]azepin-7-yl]-N*4*-[2-(3-methyl-pyridin-2-yl)-phenyl]-pyrimidine-2,4-diamine] are below 100 nM and above 10000 nM.
Consider `CC1(C)CCC(=O)Nc2ccc(Nc3ncc(Cl)c(Nc4ccccc4-c4cc(=O)[nH]c(=O)[nH]4)n3)cc21` [Example 988, 6-{2-[5-Chloro-2-(5,5-dimethyl-2-oxo-2,3,4,5-tetrahydro-1H-benzo[b]azepin-7-ylamino)-pyrimidin-4-ylamino]-phenyl}-1H-pyrimidine-2,4-dione], for which the IC50 in assay [1] was 1000 to 10000 nM; in assay [2], above 10000 nM.
On the same counts, the results for `COc1cccnc1-c1ccccc1Nc1nc(Nc2ccc3c(c2)C(C)(C)CCC(=O)N3)ncc1Cl` [Example 989, 7-{5-Chloro-4-[2-(3-methoxy-pyridin-2-yl)-phenylamino]-pyrimidin-2-ylamino}-5,5-dimethyl-1,3,4,5-tetrahydro-benzo[b]azepin-2-one] are below 100 nM and 100 to 1000 nM.

What is called IC50 is the concentration at which inhibition is half-maximal.
